Patent publication US11033569B2, “Compounds,Compositions, and methods for the treatment of disease” (Sperovie Biosciences, Inc., priority 2016, dated 2021)
“Also recorded” adds a separate entry of the source. Where two headings read alike, the source gives them in different places.

Tests used:
ISG54 ISRE-luc reporter = ISG54 ISRE-luc reporter activation in HEK293 (SZ14) cells, screen for STING agonists; assay type: cell-based; settings: digitonin buffer, 5 hours, read-out: IRF EC50
Procedure: (§1) ISG54 or NF-κβ activity was determined using the Steady-glo buffer system (Promega), and are expressed as EC50 values summarized in Table 3 below. […] This calculation is applicable for compounds with enzyme inhibition activity, as the baseline for an untreated sample may be set at 100% enzymatic activity, and therefore % inhibition is evaluated based on this 100% maximal basis. For these studies, the EC50 value relates to the concentration required to achieve a value 50% activity level above the untreated sample set at 0%.
(§2) Data are shown as fold induction over cells that received DMSO (compound carrier) alone as the mean, +/−standard deviation of duplicate wells per stimulant.

NF-κβ-luc reporter = NF-κβ-luc reporter activation in HEK293 (SZ14) cells, screen for STING agonists; assay type: cell-based; settings: digitonin buffer, 5 hours, read-out: NF-KB EC50
Procedure: as §1, §2

A20 lymphoma = assay: Syngeneic A20 lymphoma mouse model; assay type: in vivo; settings: monotherapy; for tumor growth: compared with vehicle
mouse macrophages = assay: Type I IFN signaling in mouse macrophages; assay type: cell-based; settings: mouse macrophages (FIG. 36B)
Procedure: Activity of secreted luciferase in cell culture supernatant was measured using Invivogen Quanti-luc. Data are shown as fold induction over DMSO treated cells (mean±standard deviation of triplicate wells per stimulant).

human monocytes = assay: Activity in human monocytes; assay type: cell-based; settings: human monocytes (FIG. 36A)
THP1 cells and PBMCs = assay: Gene expression of ISGs and PRRs in THP1 and PBMCs (real time PCR); assay type: cell-based; settings: 5 uM, Lipofectamine LTX, 20 h
Procedure: (§3) After incubation for 20 h, RNA was extracted and gene expression of different Interferon Stimulated Genes (ISGs) and various Pattern Recognition Receptors (PRRs) was evaluated by real time PCR. Fold Induction was calculated by ΔΔct method.
as §3

CT26 colon cancer = assay: Syngeneic CT26 colon cancer mouse model; assay type: in vivo; settings: intratumoral administration
THP1 cells = assay: Type III IFN (IL-29) production in THP1 cells (ELISA); assay type: cell-based; settings: 21 hrs
Procedure: Level of IL-29 in culture supernatant was determined using ELISA. Results shown are the average±standard deviation of duplicate wells.

[1] = vs vehicle, vehicle and Ethanol (FIG. 80)

SMILES | EC50 (ISG54 ISRE-luc reporter) | EC50 (NF-κβ-luc reporter) | further results
CCCCCCCCCCOc1ccc(C(=O)Oc2ccc(CS[P@@]3(=O)OC[C@H]4O[C@@H](n5cnc6c(N)ncnc65)[C@H](F)[C@@H]4OP(=O)(O)OC[C@H]4O[C@@H](n5ccc(=O)[nH]c5=O)[C@H](F)[C@@H]4O3)cc2)cc1 (single isomer, unassigned) [Cmd 1B] | < 50 nM | 50 to 500 nM | –
CCCCCCCCCCOC(=O)Oc1ccc(CSP2(=O)OC[C@H]3O[C@@H](n4cnc5c(N)ncnc54)[C@H](F)[C@@H]3OP(=O)(O)OC[C@H]3O[C@@H](n4ccc(=O)[nH]c4=O)[C@H](F)[C@@H]3O2)cc1 (some centres unmarked) [Cmd 26] | < 50 nM | < 50 nM | –
CCCCCCCCCCOc1ccc(C(=O)Oc2ccc(CS[P@]3(=O)OC[C@H]4O[C@@H](n5cnc6c(N)ncnc65)[C@H](F)[C@@H]4OP(=O)(O)OC[C@H]4O[C@@H](n5ccc(=O)[nH]c5=O)[C@H](F)[C@@H]4O3)cc2)cc1.N (single isomer, unassigned) [Cmd 1A] | < 50 nM | 50 to 500 nM | survival rate (A20 lymphoma): significantly improve the survival rate; tumor growth (A20 lymphoma): inhibit mouse A20 B cell lymphoma tumor cells
Nc1ncnc2c1ncn2[C@@H]1O[C@@H]2COP(=O)(S)O[C@H]3[C@@H](F)[C@H](n4ccc(=O)[nH]c4=O)O[C@@H]3COP(=O)(S)O[C@H]2[C@H]1F (some centres unmarked) [Cmd 2] | – | – | EC50 (ISG54 ISRE-luc reporter; Homo sapiens): 1000 to 2000 nM; EC50 (NF-κβ-luc reporter; Homo sapiens): > 2000 nM
Nc1nc2c(ncn2[C@@H]2O[C@@H]3COP(=O)(S)O[C@H]4[C@@H](O)[C@H](n5cnc6c(=O)[nH]c(N)nc65)O[C@@H]4COP(=O)(S)O[C@H]3[C@H]2O)c(=O)[nH]1 (some centres unmarked) [Cmd 18] | – | – | EC50 (ISG54 ISRE-luc reporter; Homo sapiens): > 2000 nM; EC50 (NF-κβ-luc reporter; Homo sapiens): > 2000 nM
CCCCCCCCCCOc1ccc(Oc2ccc(CSP3(=O)OC[C@H]4O[C@@H](n5cnc6c(N)ncnc65)[C@H](F)[C@@H]4OP(=O)(O)OC[C@H]4O[C@@H](n5ccc(=O)[nH]c5=O)[C@H](F)[C@@H]4O3)cc2)cc1 (some centres unmarked) [Cmd 29] | 50 to 500 nM | 500 to 1000 nM | –
CC(C)OC(=O)OCSP1(=O)OC[C@H]2O[C@@H](n3cnc4c(N)ncnc43)[C@H](F)[C@@H]2OP(=O)(O)OC[C@H]2O[C@@H](n3ccc(=O)[nH]c3=O)[C@H](F)[C@@H]2O1.N (some centres unmarked) [Cmd 5] | > 2000 nM | > 2000 nM | activity relative to natural STING ligand 3′,3′-cGAMP (mouse macrophages): more active; activity relative to natural STING ligand 3′,3′-cGAMP (human monocytes): more active
CCCCCCCCCCOc1ccc(C(=O)Oc2ccc(CSP3(=O)OC[C@H]4O[C@@H](n5cnc6c(N)ncnc65)[C@H](F)[C@@H]4OP(=O)(SCc4ccc(OC(=O)c5ccc(OCCCCCCCCCC)cc5)cc4)OC[C@H]4O[C@@H](n5ccc(=O)[nH]c5=O)[C@H](F)[C@@H]4O3)cc2)cc1 (some centres unmarked) [Cmd 4] | 1000 to 2000 nM | > 2000 nM | induction of ISG and PRR-associated genes, THP1 compared to PBMCs (THP1 cells and PBMCs): Enhanced Activity
CCCCCCCCCCCCOc1ccc(C(=O)Oc2ccc(CS[P@@]3(=O)OC[C@H]4O[C@@H](n5cnc6c(N)ncnc65)[C@H](F)[C@@H]4OP(=O)(O)OC[C@H]4O[C@@H](n5ccc(=O)[nH]c5=O)[C@H](F)[C@@H]4O3)cc2)cc1 [Cmd 22] | < 50 nM | 50 to 500 nM | –
CCCCCCCCCCCC(=O)Oc1ccc(CSP2(=O)OC[C@H]3O[C@@H](n4cnc5c(N)ncnc54)[C@H](F)[C@@H]3OP(=O)(O)OC[C@H]3O[C@@H](n4ccc(=O)[nH]c4=O)[C@H](F)[C@@H]3O2)cc1.N (some centres unmarked) [Cmd 13] | < 50 nM | 50 to 500 nM | activity relative to natural STING ligand 3′,3′-cGAMP (mouse macrophages): more active; activity relative to natural STING ligand 3′,3′-cGAMP (human monocytes): more active
CCCCCCCCOc1ccc(C(=O)Oc2ccc(CSP3(=O)OC[C@H]4O[C@@H](n5cnc6c(N)ncnc65)[C@H](F)[C@@H]4OP(=O)(O)OC[C@H]4O[C@@H](n5ccc(=O)[nH]c5=O)[C@H](F)[C@@H]4O3)cc2)cc1.N (some centres unmarked) [Cmd 12] | < 50 nM | < 50 nM | activity relative to natural STING ligand 3′,3′-cGAMP (mouse macrophages): more active; activity relative to natural STING ligand 3′,3′-cGAMP (human monocytes): more active
CCCCCCCCCCOc1ccc(C(=O)Oc2ccc(CSP3(=O)OC[C@H]4O[C@@H](n5cnc6c(N)ncnc65)C[C@@H]4OP(=O)(SCc4ccc(OC(=O)c5ccc(OCCCCCCCCCC)cc5)cc4)OC[C@H]4O[C@@H](n5ccc(=O)[nH]c5=O)[C@H](OC)[C@@H]4O3)cc2)cc1 (some centres unmarked) [Cmd 20] | > 2000 nM | > 2000 nM | –
CCCCCCCCCCOc1ccc(C(=O)Oc2ccc(CSP3(=O)OC[C@H]4O[C@@H](n5cnc6c(N)ncnc65)[C@H](F)[C@@H]4OP(=O)(O)OC[C@H]4O[C@@H](n5ccc(=O)[nH]c5=O)[C@H](F)[C@@H]4O3)cc2)c(C)c1 (some centres unmarked) [Cmd 25] | < 50 nM | 50 to 500 nM | tumor growth (CT26 colon cancer; vs vehicle (FIG. 79)): considerable tumor growth inhibition; tumor growth (CT26 colon cancer; [1]): considerable tumor growth inhibition
CCCCCCCCCCNC(=O)Oc1ccc(CSP2(=O)OC[C@H]3O[C@@H](n4cnc5c(N)ncnc54)[C@H](F)[C@@H]3OP(=O)(O)OC[C@H]3O[C@@H](n4ccc(=O)[nH]c4=O)[C@H](F)[C@@H]3O2)cc1 (some centres unmarked) [Cmd 32] | 50 to 500 nM | 50 to 500 nM | –
CCCCCCCCCCCCOc1ccc(C(=O)Oc2ccc(CS[P@]3(=O)OC[C@H]4O[C@@H](n5cnc6c(N)ncnc65)[C@H](F)[C@@H]4OP(=O)(O)OC[C@H]4O[C@@H](n5ccc(=O)[nH]c5=O)[C@H](F)[C@@H]4O3)cc2)cc1 [Cmd 23] | < 50 nM | 50 to 500 nM | –
CO[C@@H]1[C@@H]2OP(=O)(S)OC[C@H]3O[C@@H](n4cnc5c(N)ncnc54)C[C@@H]3OP(=O)(S)OC[C@H]2O[C@H]1n1ccc(=O)[nH]c1=O (some centres unmarked) [Cmd 17] | – | – | EC50 (ISG54 ISRE-luc reporter; Homo sapiens): > 2000 nM; EC50 (NF-κβ-luc reporter; Homo sapiens): > 2000 nM
CCCCCCCCCCOc1ccc(C(=O)NCc2ccc(CSP3(=O)OC[C@H]4O[C@@H](n5cnc6c(N)ncnc65)[C@H](F)[C@@H]4OP(=O)(O)OC[C@H]4O[C@@H](n5ccc(=O)[nH]c5=O)[C@H](F)[C@@H]4O3)cc2)cc1 (some centres unmarked) [Cmd 31] | 500 to 1000 nM | > 2000 nM | –
CCCCCCCCCCOc1ccc(C(=O)Nc2ccc(CSP3(=O)OC[C@H]4O[C@@H](n5cnc6c(N)ncnc65)[C@H](F)[C@@H]4OP(=O)(O)OC[C@H]4O[C@@H](n5ccc(=O)[nH]c5=O)[C@H](F)[C@@H]4O3)cc2)cc1 (some centres unmarked) [Cmd 30] | 500 to 1000 nM | > 2000 nM | –
CCCCCCCCCCCCOc1ccc(C(=O)Oc2ccc(CSP3(=O)OC[C@H]4O[C@@H](n5cnc6c(N)ncnc65)[C@H](F)[C@@H]4OP(=O)(O)OC[C@H]4O[C@@H](n5ccc(=O)[nH]c5=O)[C@H](F)[C@@H]4O3)cc2)cc1.N (some centres unmarked) [Cmd 15] | < 50 nM | < 50 nM | activity relative to natural STING ligand 3′,3′-cGAMP (mouse macrophages): more active; activity relative to natural STING ligand 3′,3′-cGAMP (human monocytes): more active; type III interferon (IL-29) production (THP1 cells): induce type III interferon (IL-29) production
CCCCCCOc1ccc(C(=O)Oc2ccc(CSP3(=O)OC[C@H]4O[C@@H](n5cnc6c(N)ncnc65)[C@H](F)[C@@H]4OP(=O)(O)OC[C@H]4O[C@@H](n5ccc(=O)[nH]c5=O)[C@H](F)[C@@H]4O3)cc2)cc1.N (some centres unmarked) [Cmd 14] | < 50 nM | < 50 nM | activity relative to natural STING ligand 3′,3′-cGAMP (mouse macrophages): more active; activity relative to natural STING ligand 3′,3′-cGAMP (human monocytes): more active
N.N.Nc1ncnc2c1ncn2[C@@H]1O[C@@H]2COP(=O)(S)O[C@H]3[C@@H](F)[C@H](n4ccc(=O)[nH]c4=O)O[C@@H]3COP(=O)(O)O[C@H]2[C@H]1F (some centres unmarked) [Cmd 21] | – | – | EC50 (ISG54 ISRE-luc reporter; Homo sapiens): 500 to 1000 nM; EC50 (NF-κβ-luc reporter; Homo sapiens): > 2000 nM; survival rate (A20 lymphoma): significantly improve the survival rate; tumor growth (A20 lymphoma): considerable tumor growth inhibition; also recorded: inhibit mouse A20 B cell lymphoma tumor cells; tumor growth (CT26 colon cancer; vs vehicle (FIG. 79)): considerable tumor growth inhibition; tumor growth (CT26 colon cancer; [1]): considerable tumor growth inhibition
